Assay results: publication PMC9824012, “Exploring Antimicrobial Peptides Efficacy against Fire Blight (Erwinia amylovora)” (Plants, 2022)
Ends that are not written are not given here.

system: Erwinia amylovora; experiment: In vivo antibacterial activity on inoculated immature pear fruits; set-up: species or system Erwinia amylovora on pear fruits (cv. 'Recchia falsa'); settings: 20 µL peptide at 50 µM into inoculation site, immature pears, 6 days at 25 °C, eight replicates
Protocol: To evaluate the in vivo antibacterial activity of selected AMPs, immature pear fruits (cv. ‘Recchia falsa’) were inoculated with E. amylovora and AMPs were applied. Briefly, ten-week-old pears were disinfected by immersion in a 70% ethanol solution for 2 min and then rinsed 3 times in sterile distilled water. Disinfected fruits were pricked to approximately 5 mm deep, with a sterile micropipette tip and inoculated with 20 µL of E. amylovora suspension (10^8 CFU/mL). Once the fruits had absorbed the bacteria, two concentrations of peptides (50 and 250 µM) were used; 20 µL of the concentration was introduced into the inoculation site and incubated in a humid chamber at 25 °C for 6 days. Fruits inoculated with sterile water and with E. amylovora suspension were included as controls. The experiment consisted of eight replicates per treatment, and symptoms were recorded at 6 days post-infection. The symptoms developed in immature pears (i.e., necrosis or bacterial exudates) were evaluated by measuring the diameter of necrotic lesions. The data were then analyzed using variance analysis (ANOVA), followed by Duncan’s multiple range test (α = 0.05), using SPSS statistical software (version 24.0, IBM, Armonk, N.Y., USA). All data were presented as mean values ± standard deviation (SD).

Substance | Reduction of fire blight symptoms (necrotic lesion diameter) [%]
FFHHIFRGIVHVGKTIHRLVTG [FG22, Piscidin 1] [listing 1 of 2 here] | 48
GFKDLLKGAAKALVKTVLF-NH2 [GF19, Ascaphin-8] | 43
IKWKKLLRAAKRIL-NH2 [IL14, DASamP2] | 61

same assay, conditions: 20 µL peptide at 250 µM into inoculation site, immature pears, 6 days at 25 °C, eight replicates

Substance | Reduction of fire blight symptoms (necrotic lesion diameter) [%]
FFHHIFRGIVHVGKTIHRLVTG [FG22, Piscidin 1] [listing 1 of 2 here] | 65
GFKDLLKGAAKALVKTVLF-NH2 [GF19, Ascaphin-8] | 48
IKWKKLLRAAKRIL-NH2 [IL14, DASamP2] | 76

system: immature pear fruits; experiment: not given; assay type: in vivo, pear (cv. 'Recchia falsa'); settings: 100 µL peptide at 50 and 250 µM, 5 days at room temperature, six fruits per peptide
Protocol: (§1) The possible toxicity of the selected peptides was evaluated using immature pear fruits (cv. ‘Recchia falsa’), and horse erythrocyte cells, respectively, as plant and animal cell models. Briefly, six fruits for each peptide were pricked to approximately 5 mm deep and inoculated with 100 µL of the corresponding peptide at 50 and 250 µM concentrations. Fruits were kept in a chamber at room temperature for 5 days and repeatedly examined for the development of lesions. The peptide toxicity was measured as lesion diameter. Erythrocytes from a horse blood sample (provided by the University of Bari, Department of Veterinary Medicine, Valenzano, Italy) were used for the hemolytic assay. The erythrocytes were challenged with AMPs at 50 and 250 µM for 3 h and their possible hemolytic activity was observed under light microscope.

Substance | Toxicity (hypersensitive or cytotoxic activity) on pear fruits (in words)
GFKDLLKGAAKALVKTVLF-NH2 [GF19, Ascaphin-8] | toxicologically safe for plant and animal cells
IKWKKLLRAAKRIL-NH2 [IL14, DASamP2] | toxicologically safe for plant and animal cells

same assay, conditions: in vivo

Substance | Toxicity (hypersensitive or cytotoxic activity) on pear fruits (in words)
FFHHIFRGIVHVGKTIHRLVTG [FG22, Piscidin 1] [listing 2 of 2 here] | toxicologically safe for plant and animal cells

system: Erwinia amylovora; experiment: Fluorescence microscopy LIVE/DEAD BacLight (SYTO9/PI); assay type: cell-based, Erwinia amylovora strain PGL Z1; settings: peptide 50 µM, 1 h; calculated from SYTO9 and PI counts
Protocol: The bactericidal activity of the selected peptides (GF19, FG22, IL14, and KL29) was assessed by a test contact for 24 h, as described (Section 2.3), coupled with v-qPCR assay using the PMAxx™ (Biotium, Rome, Italy). PMAxx™ is a photo-reactive dye that binds to DNA with high affinity; upon cell lysis, it covalently attaches to disrupted DNA that cannot be amplified by PCR. This unique feature makes PMAxx™ extremely useful in selective detection of bacterial cells with intact plasma membranes by qPCR. Briefly, after 24 h at 25 °C, 200 µL of the mixture was transferred to a new tube and treated with PMAxx at a final concentration of 7.5 μM. Subsequently, samples were incubated in the dark at room temperature for 8 min, followed by photoactivation for 15 min. Genomic DNA of all samples was extracted using the cetyltrimethylammonium bromide (CTAB) method. v-qPCR was carried out in a thermocycler apparatus (Bio-Rad CFX96, BioRad, Milan, Italy), using Ea-lsc primers and conditions reported in Laforest et al.. The v-qPCR cycles consisted of an initial denaturation step of 95 °C for 5 min; 45 cycles of 95 °C for 30 s and 60 °C for 30 s with fluorescence readings at each cycle. For the FM assay, aliquots of E. amylovora suspension were incubated with 50 and 250 μM of selected peptides for 1 h at room temperature. The same protocol was used for X. campestris at different concentrations (100, 50, 25, 12.5, 6.25, 2 μM) using KL29 peptide, known for its potent bactericidal activity against X. campestris. The LIVE/DEAD ®BacLight™ viability kit (ThermoFisher Scientific, Milan, Italy) was used according to the manufacturer’s recommendation to assess the integrity of bacteria cells treated with the peptides at 1 h post-infection (Stocks, 2004). Briefly, 9 μL of sample was mixed with 0.5 μL of SYTO9 and 0.5 μL of propidium iodide (PI) for 15 min at room temperature in the dark. Photomicrographs were taken with a Nikon E800 microscope using a fluorescein isothiocyanate (480/30 excitation filter, DM505 dichroic mirror, 535/40 emission filter) and tetramethyl rhodamine isocyanate (546/10 excitation filter, DM575 dichroic mirror, 590 emission filter) fluorescence filter sets.
Supplementary Table S2. The statistical analysis consisted of counting the coloured spo ts (green: SYTO9 and red: PI) in the different channels of 10 replicas for the two concentrations of each antimicrobial peptide and the relative percentages of viable cells is calculated.
250 µM 50 µM % of viability
(1 picture or pasted object on this page, not shown here)

Substance | % of viability [%]
FFHHIFRGIVHVGKTIHRLVTG [FG22, Piscidin 1] [listing 1 of 2 here] | 28
GFKDLLKGAAKALVKTVLF-NH2 [GF19, Ascaphin-8] | 44
IKWKKLLRAAKRIL-NH2 [IL14, DASamP2] | 15

same assay, conditions: peptide 250 µM, 1 h; calculated from SYTO9 and PI counts

Substance | % of viability [%]
FFHHIFRGIVHVGKTIHRLVTG [FG22, Piscidin 1] [listing 1 of 2 here] | 49
GFKDLLKGAAKALVKTVLF-NH2 [GF19, Ascaphin-8] | 64
IKWKKLLRAAKRIL-NH2 [IL14, DASamP2] | 48

system: Erwinia amylovora; experiment: not given; settings: 24 h, 50 µM
Protocol: (§2) The bacterial material consisted of E. amylovora strain PGL Z1, isolated in 2013 from pear in Apulia region (Italy), and Xanthomonas campestris pv. campestris strain CFBP 1710 (X. campestris), isolated in 1975 from Brassica oleracea var. botrytis in France, which was used as a control to investigate the bactericidal activity and action mode of AMPs against two different bacteria. The bacterial strains were cultured on yeast extract peptone glucose agar (YPGA) and broth (YPG) media, consisting of 0.5% yeast extract, 0.5% peptone, 1% glucose and 1.5% agar. E. amylovora and X. campestris cell suspensions were prepared in sterile distilled water and the suspensions were adjusted to an optical density at 600 nm (OD600) of 0.1, which corresponds approximately to 10^8 CFU/mL.
Briefly, 20 µL from each concentration (50 and 250 µM) was mixed with 180 µL of E. amylovora suspension (YPG) and incubated at 25 °C for 24 h. Six OD600 nm measures were taken over 24 h using the NanoDrop™ One/OneC Microvolume UV-Vis Spectrophotometer (ThermoFisher Scientific, Waltham, MA, USA).

Substance | Inhibition of E. amylovora growth (OD600) [%]
FFHHIFRGIVHVGKTIHRLVTG [FG22, Piscidin 1] [listing 1 of 2 here] | ~60

same assay, conditions: 24 h, 250 µM

Substance | Inhibition of E. amylovora growth (OD600) [%]
FFHHIFRGIVHVGKTIHRLVTG [FG22, Piscidin 1] [listing 1 of 2 here] | 92

system: Erwinia amylovora; experiment: Spot test screening of AMPs on plates; assay type: cell-based, Erwinia amylovora strain PGL Z1; set-up: key to Spot test result at 1 mM / Spot test result at 500 µM / Spot test result at 250 µM / Spot test result at 100 µM / Spot test result at 50 µM / Spot test result at 25 µM / Spot test result at 12.5 µM: +: Clear plaque formation; -: no plaque formation; settings: 5 µL peptide at 12.5 µM spotted on plate with E. amylovora 10^8 CFU/mL, overnight at 25 °C
Protocol: as §2
The nine AMPs were screened using the spot test to select those with the best antibacterial activity against E. amylovora. Briefly, 300 µL of E. amylovora suspension (10^8 CFU/mL) was poured into the plates and maintained at room temperature for 15 min. Subsequently, 5 μL from each peptide at different concentrations (1000, 500, 250, 100, 50, 25 and 12.5 μM) was spotted onto the surface of the plates, followed by overnight incubation at 25 °C. Sterile distilled water was spotted in the plates as a control.
Supplementary Table S1. Results of the spot tests for the nine antimicrobial peptides used against Erwinia
Ascaphin-8 GF-19 + + + + + - -
DASamP1 FF-13 + + + - - - -
DASamP2 IL-14 + + + + + - -
Lycotoxin I IL-25 + + + + - - -
Maculatin 1.3 GF-21 + + + - - - -
Piscidin 1 FG-22 + + + + + - -
BP178 KL-29 + + + + + + -
RIJK2 RV-12 + + + - - - -
+: Clear plaque formation; -: no plaque formation.

Substance | Spot test result at 12.5 µM
FFHHIFRGIVHVGKTIHRLVTG [FG22, Piscidin 1] [listing 1 of 2 here] | -
GFKDLLKGAAKALVKTVLF-NH2 [GF19, Ascaphin-8] | -
IKWKKLLRAAKRIL-NH2 [IL14, DASamP2] | -

same assay, conditions: 5 µL peptide at 25 µM spotted on plate with E. amylovora 10^8 CFU/mL, overnight at 25 °C

Substance | Spot test result at 25 µM
FFHHIFRGIVHVGKTIHRLVTG [FG22, Piscidin 1] [listing 1 of 2 here] | -
GFKDLLKGAAKALVKTVLF-NH2 [GF19, Ascaphin-8] | -
IKWKKLLRAAKRIL-NH2 [IL14, DASamP2] | -

same assay, conditions: 5 µL peptide at 50 µM spotted on plate with E. amylovora 10^8 CFU/mL, overnight at 25 °C

Substance | Spot test result at 50 µM
FFHHIFRGIVHVGKTIHRLVTG [FG22, Piscidin 1] [listing 1 of 2 here] | +
GFKDLLKGAAKALVKTVLF-NH2 [GF19, Ascaphin-8] | +
IKWKKLLRAAKRIL-NH2 [IL14, DASamP2] | +

same assay, conditions: 5 µL peptide at 100 µM spotted on plate with E. amylovora 10^8 CFU/mL, overnight at 25 °C

Substance | Spot test result at 100 µM
FFHHIFRGIVHVGKTIHRLVTG [FG22, Piscidin 1] [listing 1 of 2 here] | +
GFKDLLKGAAKALVKTVLF-NH2 [GF19, Ascaphin-8] | +
IKWKKLLRAAKRIL-NH2 [IL14, DASamP2] | +

same assay, conditions: 5 µL peptide at 250 µM spotted on plate with E. amylovora 10^8 CFU/mL, overnight at 25 °C

Substance | Spot test result at 250 µM
FFHHIFRGIVHVGKTIHRLVTG [FG22, Piscidin 1] [listing 1 of 2 here] | +
GFKDLLKGAAKALVKTVLF-NH2 [GF19, Ascaphin-8] | +
IKWKKLLRAAKRIL-NH2 [IL14, DASamP2] | +

same assay, conditions: 5 µL peptide at 500 µM spotted on plate with E. amylovora 10^8 CFU/mL, overnight at 25 °C

Substance | Spot test result at 500 µM
FFHHIFRGIVHVGKTIHRLVTG [FG22, Piscidin 1] [listing 1 of 2 here] | +
GFKDLLKGAAKALVKTVLF-NH2 [GF19, Ascaphin-8] | +
IKWKKLLRAAKRIL-NH2 [IL14, DASamP2] | +

same assay, conditions: 5 µL peptide at 1 mM spotted on plate with E. amylovora 10^8 CFU/mL, overnight at 25 °C

Substance | Spot test result at 1 mM
FFHHIFRGIVHVGKTIHRLVTG [FG22, Piscidin 1] [listing 1 of 2 here] | +
GFKDLLKGAAKALVKTVLF-NH2 [GF19, Ascaphin-8] | +
IKWKKLLRAAKRIL-NH2 [IL14, DASamP2] | +

same assay, conditions: peptide 50 µM

Substance | Spot test, killing of E. amylovora at 50 µM (in words)
FFHHIFRGIVHVGKTIHRLVTG [FG22, Piscidin 1] [listing 1 of 2 here] | could kill E. amylovora
GFKDLLKGAAKALVKTVLF-NH2 [GF19, Ascaphin-8] | could kill E. amylovora
IKWKKLLRAAKRIL-NH2 [IL14, DASamP2] | could kill E. amylovora

system: horse erythrocyte cells; experiment: not given; assay type: cell-based; settings: not given
Protocol: as §1

Substance | Toxicity (hemolytic or cytotoxic activity) on horse erythrocytes (in words)
FFHHIFRGIVHVGKTIHRLVTG [FG22, Piscidin 1] [listing 2 of 2 here] | toxicologically safe for plant and animal cells

same assay, conditions: peptide 50 and 250 µM, 3 h, light microscope

Substance | Toxicity (hemolytic or cytotoxic activity) on horse erythrocytes (in words)
GFKDLLKGAAKALVKTVLF-NH2 [GF19, Ascaphin-8] | toxicologically safe for plant and animal cells
IKWKKLLRAAKRIL-NH2 [IL14, DASamP2] | toxicologically safe for plant and animal cells
